These results are taken from PubChem BioAssay AID602147 (Vanderbilt Specialized Chemistry Center, 2011).

Broadly, the IC50 is the concentration needed to halve the response being measured.

The assay concerns the target Phospholipase D2 (Homo sapiens) (UniProt O14939). The assay is described as follows: cellular phospholipase D2 inhibition IC50 – cell-based, dose response (AID 602147). The conditions noted are these: cellular PLD2 activity assay, concentration response.

The structures appear in SMILES notation.

Sequence of Phospholipase D2 (Homo sapiens) (O14939 whole entry, looked up): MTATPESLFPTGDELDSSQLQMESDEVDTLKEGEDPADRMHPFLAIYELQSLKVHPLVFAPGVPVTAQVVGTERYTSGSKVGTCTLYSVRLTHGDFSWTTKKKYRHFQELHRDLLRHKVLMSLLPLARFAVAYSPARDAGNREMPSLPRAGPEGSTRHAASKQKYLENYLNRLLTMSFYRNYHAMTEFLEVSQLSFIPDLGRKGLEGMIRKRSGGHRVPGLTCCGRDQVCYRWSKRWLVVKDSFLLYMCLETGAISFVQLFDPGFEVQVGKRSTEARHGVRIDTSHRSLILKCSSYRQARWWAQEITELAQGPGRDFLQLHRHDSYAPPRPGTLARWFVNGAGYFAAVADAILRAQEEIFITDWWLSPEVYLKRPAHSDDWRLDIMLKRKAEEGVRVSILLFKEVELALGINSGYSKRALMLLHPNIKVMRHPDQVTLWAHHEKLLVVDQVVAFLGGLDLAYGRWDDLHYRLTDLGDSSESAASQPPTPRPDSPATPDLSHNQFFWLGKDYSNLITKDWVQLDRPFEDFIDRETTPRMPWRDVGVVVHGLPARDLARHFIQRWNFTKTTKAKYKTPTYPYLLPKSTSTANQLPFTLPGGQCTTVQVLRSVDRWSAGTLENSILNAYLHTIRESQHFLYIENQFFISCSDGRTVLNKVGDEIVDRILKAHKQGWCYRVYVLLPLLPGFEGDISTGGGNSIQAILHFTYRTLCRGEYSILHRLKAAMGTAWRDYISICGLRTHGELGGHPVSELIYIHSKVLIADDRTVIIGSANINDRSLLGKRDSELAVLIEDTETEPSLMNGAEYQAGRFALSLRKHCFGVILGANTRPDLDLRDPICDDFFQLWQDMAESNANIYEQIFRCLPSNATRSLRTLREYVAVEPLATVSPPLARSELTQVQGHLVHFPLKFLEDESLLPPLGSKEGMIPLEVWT
Sequence of Phospholipase D2 (Homo sapiens) (O14939 whole entry, looked up): as above

On to `O=C(NCCN1CCC2(CC1)C(=O)NCN2c1ccc(F)cc1)c1ccc(F)cc1`, for which the IC50 was 610 nM.

Consider `O=C(NCCN1CCC2(CC1)C(=O)NCN2c1cccc(F)c1)c1cnc2ccccc2c1`, for which the IC50 was 63 nM.

With `O=C(NCCN1CCC2(CC1)C(=O)NCN2c1ccc(F)cc1)c1ccc2ccccc2c1`, the IC50 was 80 nM.

Turning to `O=C(NCCN1CCC2(CC1)C(=O)NCN2c1cccc(Cl)c1)c1cnc2ccccc2c1`, the IC50 is 165 nM.

With `O=C(NCCN1CCC2(CC1)C(=O)NCN2c1ccc(Br)cc1)c1cc2cc(F)ccc2[nH]1`, the IC50 was 100 nM.

With `O=C(NCCN1CCC2(CC1)C(=O)NCN2c1ccc(Br)cc1)c1cnc2ccccc2c1`, the IC50 is 360 nM.

For `O=C(NCCN1CCC2(CC1)C(=O)NCN2c1cccc(F)c1)c1cc2cc(F)ccc2[nH]1`, the IC50 is 25 nM.

For `O=C(NCCN1CCC2(CC1)C(=O)NCN2c1ccc(Cl)cc1)c1ccc(F)cc1`, the IC50 is 5670 nM.

Consider `O=C(NCCN1CCC2(CC1)C(=O)NCN2c1ccccc1)c1cc2ccccc2s1`, for which the IC50 was 30 nM.

With `O=C(NCCN1CCC2(CC1)C(=O)NCN2c1cccc(Cl)c1)c1ccc(F)cc1`, the IC50 was 70 nM.

`O=C(NCCN1CCC2(CC1)C(=O)NCN2c1ccc(Cl)cc1)c1ccc2ccccc2c1`: the IC50 was 655 nM.

On to `O=C(NCCN1CCC2(CC1)C(=O)NCN2c1ccc(Br)cc1)c1ccc2ccccc2c1`, for which the concentration for half-maximal inhibition (IC50) was 350 nM.

As for `O=C(NCCN1CCC2(CC1)C(=O)NCN2c1ccc(Cl)cc1)c1cc2cc(F)ccc2[nH]1`, the IC50 is 50 nM.

As to `O=C(NCCN1CCC2(CC1)C(=O)NCN2c1ccc(F)cc1)c1cnc2ccccc2c1`, the 50% inhibitory concentration (IC50) was 40 nM.

For `COc1cc(C(=O)NCCN2CCC3(CC2)C(=O)NCN3c2ccccc2)ccc1N`, the IC50 was 550 nM.

On to `O=C(C#Cc1ccccc1)NCCN1CCC2(CC1)C(=O)NCN2c1ccccc1`, for which the IC50 was 1640 nM.

Consider `O=C(NCCN1CCC2(CC1)C(=O)NCN2c1cccc(F)c1)c1ccc(F)cc1`, for which the half-maximal inhibitory concentration (IC50) was 6690 nM.

Turning to `O=C(NCCN1CCC2(CC1)C(=O)NCN2c1ccc(F)c(F)c1)c1ccc(F)cc1`, the IC50 was 660 nM.

Regarding `O=C(NCCN1CCC2(CC1)C(=O)NCN2c1cccc(Cl)c1)c1ccc2ccccc2c1`, the IC50 was 290 nM.

For `C[C@@H](CN1CCC2(CC1)C(=O)NCN2c1cccc(F)c1)NC(=O)c1ccc2ccccc2c1`, the IC50 is 60 nM.

As to `O=C(NCCN1CCC2(CC1)C(=O)NCN2c1ccc(Cl)cc1)c1cnc2ccccc2c1`, the IC50 is 200 nM.

For the compound `O=C(NCCN1CCC2(CC1)C(=O)NCN2c1cccc(Cl)c1)c1cc2cc(F)ccc2[nH]1`, the IC50 is 73 nM.

As for `O=C(NCCN1CCC2(CC1)C(=O)NCN2c1ccc(Br)cc1)c1ccc(F)cc1`, the IC50 is 8000 nM.
